Experimental data from patent US4110327A, “2,3 Diketo-piperazinocarbonylamino alkanoic acids and derivatives” (Toyama Chemical Co., Ltd., priority 1974, dated 1978).
Values after ≈ are worked out from the molar mass of the structure shown.

How the values were obtained:
[1] = system: Klebsiella pneumoniae; experiment: MIC against standard strain, plate method; format: cell-based; details: unit assumed
How it was run: (§1)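 Agar plate dilution MIC in heart infusion agar, pH 7.4. Inoculum was 10^4 cells per plate, from a suspension of 10^6 cells/ml.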

[2] = system: Proteus vulgaris 3027; experiment: MIC against standard strain, plate method; format: cell-based; details: Proteus vulgaris 3027, standard strain; unit assumed
How it was run: as §1

[3] = system: Pseudomonas aeruginosa I.F.O.; experiment: MIC against standard strain, plate method; format: cell-based; details: unit assumed
How it was run: as §1

[4] = system: Staphylococcus aureus 209p; experiment: MIC against standard strain, plate method; format: cell-based; details: unit assumed
How it was run: as §1

[5] = system: Staphylococcus aureus; experiment: MIC against clinical isolates; format: cell-based; details: unit assumed
[6] = system: Escherichia coli; experiment: MIC against clinical isolates; format: cell-based; details: unit assumed
[7] = system: Pseudomonas aeruginosa; experiment: MIC against clinical isolates; format: cell-based; details: unit assumed
[8] = system: Klebsiella pneumoniae; experiment: MIC against clinical isolates; format: cell-based; details: unit assumed
[9] = system: Proteus mirabilis; experiment: MIC against clinical isolates; format: cell-based; details: clinical isolate, unit assumed
[10] = system: Proteus morganii; experiment: MIC against clinical isolates; format: cell-based; details: clinical isolate, unit assumed
[11] = system: Proteus vulgaris; experiment: MIC against clinical isolates; format: cell-based; details: clinical isolate, unit assumed
[12] = system: Proteus rettgeri; experiment: MIC against clinical isolates; format: cell-based; details: clinical isolate, unit assumed
[13] = system: β-lactamase; experiment: Resistant activity against β-lactamase, iodometric assay; format: biochemical, Pseudomonas aeruginosa GN 238; details: relative to Potassium Penicillin G = 100
Procedure: (3) Resistant activity against β-lactamase, Pseudomonas aergionan GN 238:
The resistant activity of each compound against β-lactamase was measured in the manner described below.
β-Lactamase was prepared from Pseudomonas aeruginosa GN 238. This microorganism was cultured in 100 ml of a medium containing 2 g of yeast extract, 10 g of polypeptone, 2 g of glucose, 7 g of disodium hydrogen phosphate, 2 g of potassium dihydrogen phosphate, 1.2 g of ammonium sulfate and 0.4 g of magnesium sulfate, per liter, in a 500-ml Erlenmeyer flask for 6 hrs. at 37° C with shaking. The resulting cells were collected by centrifugation (5,000 r.p.m. × 10 min.), washed three times with 0.1 M phosphate buffer (pH 7.0). Subsequently, the cells were subjected to sonication (20 KHz, 20 min.) and then centrifuged at 15,000 r.p.m. for 60 min. By using the supernatant of enzyme fluid, the resistance of each compound against β-lactamase was determined by the iodometric assay method. Each numeral shown in Table 7 is a relative activity value calculated by assuming as 100 the activity of the control Potassium Penicillin G.

[14] = system: Escherichia coli NIHJ; experiment: MIC against standard strain, plate method; format: cell-based; details: unit assumed
How it was run: as §1

[15] = system: Shigella flexneri; experiment: MIC against clinical isolates; format: cell-based; details: unit assumed
Procedure: (§2) The minimum inhibitory concentrations (MIC) was determined by the plate method disclosed in "Chemotherapy" (Japan), Vol. 16, (1968), pages 98 - 99. The culture medium used was a Heart infusion agar (pH 7.4). The number of the cells per plate used in the inoculum as 10^4 (10^6 cells/ml).
(§3) MIC was determined in the same manner as in the preceding paragraph (1).

[16] = system: Shigella sonnei; experiment: MIC against clinical isolates; format: cell-based; details: unit assumed
Procedure: as §2, §3

[17] = system: Salmonella typhi; experiment: MIC against clinical isolates; format: cell-based; details: unit assumed
[18] = system: Salmonella typhi-murium; experiment: MIC against clinical isolates; format: cell-based; details: unit assumed

## CC1(C)S[C@@H]2[C@H](NC(=O)C(c3ccccc3)S(=O)(=O)O)C(=O)N2[C@H]1C(=O)O (stereo partly shown) [Sodium Sulbenicillin, SodiumSulbenicillin, reference compound]
[1]
  MIC: > 200 µg/mL
[2]
  MIC: 0.79 µg/mL
[3]
  MIC: 50 µg/mL
[4]
  MIC: 3.13 µg/mL
[5]; clinical isolate F-2
  MIC: 3.13 µg/mL
[5]; clinical isolate F-5
  MIC: > 200 µg/mL
[5]; clinical isolate MS 8588
  MIC: 3.13 µg/mL
[5]; clinical isolate MS 8596
  MIC: 3.13 µg/mL
[5]; clinical isolate MS 8619
  MIC: 3.13 µg/mL
[5]; clinical isolate MS 8684
  MIC: 3.13 µg/mL
[5]; clinical isolate MS 8713
  MIC: 3.13 µg/mL
[6]; clinical isolate GN 3452
  MIC: 12.5 µg/mL
[6]; clinical isolate GN 3465
  MIC: > 200 µg/mL
[6]; clinical isolate GN 3481
  MIC: 12.5 µg/mL
[6]; clinical isolate GN 3611
  MIC: > 200 µg/mL
[6]; clinical isolate K-2
  MIC: 12.5 µg/mL
[6]; clinical isolate K-3
  MIC: > 200 µg/mL
[7]; clinical isolate GN 82
  MIC: 50 µg/mL
[7]; clinical isolate GN 163
  MIC: 50 µg/mL
[7]; clinical isolate GN 221
  MIC: 25 µg/mL
[7]; clinical isolate GN 376
  MIC: 50 µg/mL
[7]; clinical isolate GN 383
  MIC: 50 µg/mL
[7]; clinical isolate GN 1035
  MIC: 100 µg/mL
[7]; clinical isolate GN 1091
  MIC: 50 µg/mL
[7]; clinical isolate GN 2565
  MIC: 100 µg/mL
[7]; clinical isolate GN 2987
  MIC: 25 µg/mL
[7]; clinical isolate GN (number not given; Table 5-3)
  MIC: 50 µg/mL
[7]; clinical isolate S-1
  MIC: 100 µg/mL
[7]; clinical isolate S-2
  MIC: 100 µg/mL
[7]; clinical isolate S-3
  MIC: 100 µg/mL
[7]; clinical isolate S-4
  MIC: 100 µg/mL
[8]; clinical isolate GN 917
  MIC: > 200 µg/mL
[8]; clinical isolate GN 3850
  MIC: > 200 µg/mL
[8]; clinical isolate GN 4081
  MIC: > 200 µg/mL
[8]; clinical isolate GN 4117
  MIC: > 200 µg/mL
[9]
  MIC: 0.79 µg/mL
[10]
  MIC: < 0.4 µg/mL
[11]
  MIC: < 0.4 µg/mL
[12]
  MIC: > 200 µg/mL
[13]
  Relative activity: 50%

## CC(C)N1CCN(C(=O)N[C@@H](C(=O)N[C@@H]2C(=O)N3[C@@H]2SC(C)(C)[C@@H]3C(=O)O)c2ccccc2)C(=O)C1=O (single isomer, unassigned) [compound 40]
[14]
  MIC: < 0.1 µg/mL
[1]
  MIC: 3.13 µg/mL (≈ 5.89 µM)
[2]
  MIC: 0.4 µg/mL (≈ 0.752 µM)
[4]
  MIC: 0.4 µg/mL (≈ 0.752 µM)
[5]; clinical isolate F-2
  MIC: 3.13 µg/mL (≈ 5.89 µM)
[5]; clinical isolate F-3
  MIC: 0.79 µg/mL (≈ 1.49 µM)
[5]; clinical isolate F-5
  MIC: > 200 µg/mL
[5]; clinical isolate MS 8588
  MIC: 3.13 µg/mL (≈ 5.89 µM)
[5]; clinical isolate MS 8596
  MIC: 3.13 µg/mL (≈ 5.89 µM)
[5]; clinical isolate MS 8619
  MIC: 0.79 µg/mL (≈ 1.49 µM)
[5]; clinical isolate MS 8684
  MIC: 3.13 µg/mL (≈ 5.89 µM)
[5]; clinical isolate MS 8713
  MIC: 12.5 µg/mL (≈ 23.5 µM)
[6]; clinical isolate GN 3435
  MIC: 0.79 µg/mL (≈ 1.49 µM)
[6]; clinical isolate GN 3465
  MIC: 50 µg/mL (≈ 94.1 µM)
[6]; clinical isolate GN 3611
  MIC: > 200 µg/mL
[6]; clinical isolate K-2
  MIC: 3.13 µg/mL (≈ 5.89 µM)
[6]; clinical isolate K-3
  MIC: > 200 µg/mL
[6]; clinical isolate K-4
  MIC: 0.79 µg/mL (≈ 1.49 µM)
[7]; clinical isolate GN 376
  MIC: 3.13 µg/mL (≈ 5.89 µM)
[7]; clinical isolate GN 1035
  MIC: 25 µg/mL (≈ 47 µM)
[7]; clinical isolate GN 2565
  MIC: 12.5 µg/mL (≈ 23.5 µM)
[7]; clinical isolate GN 2987
  MIC: 3.13 µg/mL (≈ 5.89 µM)
[7]; clinical isolate S-1
  MIC: 12.5 µg/mL (≈ 23.5 µM)
[7]; clinical isolate S-2
  MIC: 25 µg/mL (≈ 47 µM)
[7]; clinical isolate S-3
  MIC: 25 µg/mL (≈ 47 µM)
[7]; clinical isolate S-4
  MIC: 12.5 µg/mL (≈ 23.5 µM)
[8]; clinical isolate GN 3850
  MIC: 12.5 µg/mL (≈ 23.5 µM)
[8]; clinical isolate GN 4081
  MIC: 100 µg/mL (≈ 188 µM)
[8]; clinical isolate GN 4117
  MIC: 50 µg/mL (≈ 94.1 µM)
[15]; clinical isolate JS 11215
  MIC: 50 µg/mL (≈ 94.1 µM)
[15]; clinical isolate JS 11839
  MIC: 3.13 µg/mL (≈ 5.89 µM)
[16]; clinical isolate JS 11232
  MIC: 50 µg/mL (≈ 94.1 µM)
[16]; clinical isolate JS 11755
  MIC: 3.13 µg/mL (≈ 5.89 µM)
[17]; clinical isolate SL 819
  MIC: 1.57 µg/mL (≈ 2.95 µM)
[17]; clinical isolate SL 2169
  MIC: 1.57 µg/mL (≈ 2.95 µM)
[18]; clinical isolate SL 858
  MIC: 6.25 µg/mL (≈ 11.8 µM)
[18]; clinical isolate SL 2136
  MIC: > 200 µg/mL
[9]
  MIC: < 0.4 µg/mL
[10]
  MIC: 0.79 µg/mL (≈ 1.49 µM)
[11]
  MIC: < 0.4 µg/mL
[13]
  Relative activity: 15%

## CC1(C)S[C@@H]2[C@H](NC(=O)Cc3ccccc3)C(=O)N2[C@H]1C(=O)O [Potassium Penicillin G, reference compound]
[13]
  Relative activity: 100%
